Reference: patent US20050059684A1, “Method for reducing residual alcohols in crystalline valacyclovir hydrochloride” (priority 2002, published 2005)
Structures can show the parent of a compound that is named as a salt.

Assay: Storage stability of valacyclovir hydrochloride: N′-formylvalacyclovir impurity level by HPLC
Assay type: physicochemical
Conditions: HPLC area percent; for N′-formylvalacyclovir level (area %), T = 0: before storage; for N′-formylvalacyclovir level (area %), T = 3 month, 25° C., 60% humidity: stored three months at 25° C. and 60% RH; for N′-formylvalacyclovir level (area %), T = 3 month, 40° C., 75% humidity: stored three months at 40° C. and 75% RH
From the text: When used herein in connection with the absolute amount of an impurity, percent refers to area percent of the corresponding impurity peak on the chromatogram obtained by high pressure liquid chromatography. [drawing 2]
Impurities in valacyclovir, especially N′-formylvalacyclovir, can be measure by high pressure liquid chromatography. The chromatographic method utilizes a suitable chromatography column such as the reverse phase column Inertsil ODS-3V 5 μm 150×4.6 mm (GL Sciences, Cat. No. 5020-01731). The eluent is preferably acetonitrile (27%) and water (73%) containing 0.05% phosphoric acid (0.5 g 85% H3PO4 in 1 L water). A flow rate of about 1.0 mL/min is suitable for the separation. The column temperature can be at ambient temperature, preferably about 25° C. The detector can be a UV-spectrophotometer operating in the range of 200-600 nm, preferably about 210 nm. The injection (sample) volume is about 50 μL. The diluent used to load the sample onto the column can be, for example, the eluent.
A sample of valacyclovir hydrochloride (sample X) having circa 1700 ppm residual solvent isopropanol was divided into two portions. One portion was treated by the method of the present invention and, after treatment, had less than 500 ppm residual isopropanol (sample Y). Sample Y and the non-treated portion of sample X were each divided into two roughly equal portions. One portion of each samplewas stored at 25° C. and 60% RH for three months, the other portions of each were stored at 40° C. and 75% RH for three months. The amount of N′-formylvalacyclovir in each of the four portions after storage was determined by HPLC.

CC(C)C(N)C(=O)OCCOCn1cnc2c(=O)nc(N)[nH]c21 (stereo not drawn) [X, valacyclovir hydrochloride]
N′-formylvalacyclovir level (area %), T = 0: 0.05 area %
N′-formylvalacyclovir level (area %), T = 3 month, 25° C., 60% humidity: 0.08 area %
N′-formylvalacyclovir level (area %), T = 3 month, 40° C., 75% humidity: 0.15 area %

CC(C)C(N)C(=O)OCCOCn1cnc2c(=O)nc(N)[nH]c21 (stereo not drawn) [Y, valacyclovir hydrochloride]
N′-formylvalacyclovir level (area %), T = 0: 0.03 area %
N′-formylvalacyclovir level (area %), T = 3 month, 25° C., 60% humidity: 0.03 area %
N′-formylvalacyclovir level (area %), T = 3 month, 40° C., 75% humidity: 0.05 area %
